Entries after “also recorded” stand apart in the source; their conditions may differ.
Legend:
[1] = system: glioma, pancreas, prostate and breast cancer cells; test: Cell survival after treatment with radiolabeled L-phenylalanines, further tumor cells; type: cell-based; details: in vitro
Experimental: (§1) After development of a confluent lawn of cells, the cultures were exposed to 0.001-10 μCi/ml of the corresponding radiopharmaceutical for up to 48 hours at 37° C./5% CO2. In a parallel experiment, cells were irradiated using a 6-MeV linear accelerator with doses from 2 to 15 Gy for comparison of cell survival rate of both methods. In order to be able to observe the morphology of the glioma cells, the cells were grown on standard glass slides or in standard culture dishes. Then the medium was removed and the cells were fixed either in 70% ethanol for at least 30 min on ice for flow-cytometric analyses after staining or in 4% neutral buffered formalin for immunohistopathological analyse.
(§2) Human tumor cells grown on standard glass slides were fixed in 4% neutral buffered formalin and stained with the Giemsa method. The cell number was calculated in 10 consecutive high power fields (×40).

[2] = system: human tumor cells, especially malignant gliomas; test: Flow-cytometric analyses of stained cells after treatment (primary necrosis and apoptosis); type: cell-based; details: flow cytometry; compared with external irradiation up to 15 Gy
Experimental: as §1

glioma [3] = test: Clinical studies with IPA-123 (SPECT imaging); type: in vivo, human; details: 250 MBq
Experimental: IPA was prepared, as described in example 2. […] Patients were injected with 250 MBq IPA-123, and subsequently imaged at 30 min, 3 h and, where possible, 24 h post injection, using a triple head SPECT camera (Siemens Multi-SPECT III, Erlangen, Germany) with low energy high resolution (LEHR) collimator and iterative reconstruction for cerebral (FIG. 14) imaging. Whole body imaging (FIG. 15) was performed using a Hawkeye dual head SPECT camera (General Electrics Medical Systems, Uppsala, Sweden) with high energy collimator, and iterative reconstruction at 0 min, 1 h and 3 h after injection of 250 MBq IPA-123. SPECT images were acquired using 3-degree angular steps. During a 360° rotation 120 projections were recorded into a 128*128 matrix, with an acquisition time of 40 s per image. Images were reconstructed using manufacturer's software. Anatomical co-alignment with MRI data was performed using HERMES software for nuclear medicine (Nuclear Diagnostics, Stockholm, Sweden). Tumor uptake was visually assessed by two adequately trained, independent nuclear medicine physicians. In discordant cases, a consensus rating was agreed upon. 86% of patients with histologically confirmed tumor show IPA-123 uptake.

glioma [4] = details: cited from earlier work
glioma [5] = test: Clinical study with IPA-124 (PET imaging); type: in vivo, human
Experimental: IPA was prepared, as described in example 3. […] The patient was injected with 50 MBq IPA-124, and subsequently dynamically imaged at 40-80 min and at 6 days post injection using a dedicated PET camera (Siemens ECAT-ART Scanner, Siemens-CTI, Knoxville, Tenn., USA). SPECT images were acquired using 3-degree angular steps. During a 360° rotation 120 projections were recorded into a 128*128 matrix, with an acquisition time of 40 s per image. Images were reconstructed using manufacturer's software. Anatomical co-alignment with MRI data was performed using HERMES software for nuclear medicine (Nuclear Diagnostics, Stockholm, Sweden) (FIGS. 12a and b). Tumor uptake was visually assessed by two adequately trained, independent nuclear medicine physicians. The patient was operated on day 2 post injection. Post-operative images continue to show strong IPA uptake in projection to the resection margins corresponding to a large portion of tumor tissue which remained in situ. […] Post-operative images were semiquantitatively analysed. A region of interest (ROI) was drawn over the area of increased IPA-124 uptake and compared to a mirrored reference ROI in the contralateral healthy hemisphere using the median sagittal plane as mirror plane (FIG. 12c). Activity concentration in the remaining tumor tissue exceeded activity in the reference region by a factor of 8.86 after 6 days.

[6] = physical half life of the radionuclide; cited from earlier work
C6 rat gliomas = test: IPA-131 endoradiotherapy of orthotopic C6 rat gliomas; type: in vivo
Experimental: […] Wistar rats and RNU rats were from Charles River (Sulzfeld, Germany). The C6 rat glioma model has been previously described in detail. Its biological behavior closely simulates that of human high-grade gliomas.
(§3) One million (10^6) C6 rat glioma cells or 10^6 primary human Tx3868, […], A1207, M059K and U373MG high-grade glioma cells were stereotactically implanted into the left frontal region of Wistar rats or RNU rats while under chloral hydrate anaesthesia as described previously. The animals were held in metabolic cages. […] For each cell line, 6 animals with radiologically (MRI or by gamma camera) confirmed brain tumor were randomly chosen as control animals, a second group of 15 animals were treated with 20 MBq of the radiolabeled L-phenylalanine in two fractions of 10 MBq each via a Teflon catheter in a tail vein 9 and 18 days after tumour implantation. While a third group of 15 rats were irradiated with 4-8 Gy. Survival time was calculated according to the Kaplan-Meier method. Surviving animals were sacrificed after 90 and 180 days. All rat brains were examined histologically after biopsy.
Magnetic resonance imaging was performed 9 days after tumour implantation (before drug administration) and after the second injection of radiolabeled phenylalanine at day 18 as well as possibly at the day of scarification, using a 2.4-Tesla small animal magnetic resonance tomograph (Brucker Biospec 2.4, Karlruhe, Germany). This system was equipped with a rat coil to hold the animal and transmit homogeneous signals. All rats were imaged while under chloral hydrate anaesthesia (250 mg/kg, i.m.). Multiple axial and coronal images (T1- and T2-weighted) were acquired for 20 min without contrast media. The parameters used were: T1-weighted (TR=100 msec, TE=6.5 msec, flip angle 30°, FOV=2×2 cm, 256×128×64 matrix) and T2-weighted (TR=500 msec, TE=17.5 msec, 1 acquisition, RARE factor 16, FOV=2×2 cm, 256×256×32 matrix, slap-thickness 16 mm).
(§4) At autopsy of the rats and mice, besides the brains, other organs were harvested including the heart, lung, liver, spleen, kidney, skin, and colon. […]

[7] = system: human Tx3868 glioblastomas; test: IPA-131 endoradiotherapy of orthotopic human Tx3868 glioblastomas; type: in vivo; details: dose 20 MBq, RNU rats
Experimental: (§5) The first studies were carried out on in male Wistar rats for C6 rat glioma model and in RNU rats for human glioma models. Wistar rats and RNU rats were from Charles River (Sulzfeld, Germany). The C6 rat glioma model has been previously described in detail. Its biological behavior closely simulates that of human high-grade gliomas.
as §3, §4

[8] = Clinical and histological safety observation of treated glioma rats; type: in vivo, rat
Experimental: as §3
At autopsy of the rats and mice, besides the brains, other organs were harvested including the heart, lung, liver, spleen, kidney, skin, and colon. The brains were cut in coronal slices of about 2-3 mm thickness. All tissues from the animals were fixed in 4% neutral buffered formalin and embedded in paraffin wax. Sections were stained with hematoxylin-eosin and Verhoeff-van Gieson and examined histopathologically.

[9] = system: T5135 primary human glioma cell line; test: Cell survival rate after treatment with radiolabeled L-phenylalanines; type: cell-based; details: 24 hours exposure, 1 μCi/ml, compared to parallel grown cell cultures without exposure
Experimental: (§6) Five human glioma cell lines, one rat glioma cell line, two human prostate cancer cell lines and one human breast cancer cell line were investigated. The human glioma cell lines Tx 3868 and T 5135 (from primary human glioblastoma multiforme), and the rat C6 glioma cells were provided by the Institute of Human Genetics, University of the Saarland (Homburg, Germany). The human high-grade glioma cells, designated as A1207, M059K and U373MG, the human prostate cancer cell lines PC3 and […], and the human breast cancer cell line MCF-07 (American Type Culture Collection, Rockville, Md.), were purchased commercially or provided by the oncological research laboratory of the University Medical Center of Saarland (Homburg, Germany). Cells were cultivated in RPMI-1640 medium or in Dulbecco's modified Eagle medium (sodium pyruvate-free, supplemented with […] and pyridoxine), respectively, supplemented with 10% (v/v) heat-inactivated foetal calf serum (FCS), penicillin (50 U/ml), streptomycin (50 μg/ml), and 50 μl insulin (PromoCell, Heidelberg, Germany). All cells lines were maintained in appropriate flasks in a humidified incubator (5% CO2) at 37° C. Before the experiment, subconfluent cell cultures were trypsinized with a solution of 0.05% trypsin containing 0.02% EDTA but without Ca^2+ and Mg^2+, and resuspended in fresh medium to various cell concentrations after counting by vital staining on a hemocytometer, depending upon the study. Cells were free of mycoplasms. Viability of the cells was >95%.
(§7) After development of a confluent lawn of cells, the cultures were exposed to 0.001-10 μCi/ml of the corresponding radiopharmaceutical for up to 48 hours at 37° C./5% CO2. In a parallel experiment, cells were irradiated using a 6-MeV linear accelerator with doses from 2 to 15 Gy for comparison of cell survival rate of both methods. […]
as §2

[10] = system: Tx 3868 primary human glioma cell line; test: as above; type: cell-based
Experimental: as §6, §7, §2

[11] = system: human A1207 glioblastomas; test: IPA-131 endoradiotherapy of orthotopic human A1207 glioblastomas; type: in vivo; details: dose 20 MBq, RNU rats
Experimental: as §5, §3, §4

glioma [12] = test: Clinical study with IPA-131 (SPECT imaging); type: in vivo, human; details: 100 MBq
Experimental: IPA was prepared, as described in example 3. […] The patient was injected with 100 MBq IPA-131 and subsequently imaged at 30 min and at 26 h post injection using a Hawkeye dual head SPECT camera (General Electrics Medical Systems, Uppsala, Sweden) with high energy collimator, and iterative reconstruction for cerebral (FIGS. 13a and b) and whole body (FIGS. 13c and d) imaging. SPECT images were acquired using 3-degree angular steps. During a 360° rotation 120 projections were recorded into a 128*128 matrix, with an acquisition time of 40 s per image. Images were reconstructed using manufacturer's software. Tumor uptake was visually assessed by two adequately trained, independent nuclear medicine physicians.

[13] = system: orthotopically implanted rat and human gliomas; test: IPA-131 endoradiotherapy in rats with orthotopically implanted rat and human gliomas, Kaplan-Meier survival; type: in vivo
Experimental: as §5, §3

3,4-[^77Br]bromo-L-Phenylalanine [BrPA-77]
cell count / cell survival compared with IPA-131 results [1]: Identical results
induction of primary necrosis and apoptosis [2]: dose dependent induction of primary necrosis and apoptosis, which was more significant than that caused by external irradiation, even with 15 Gy

3,4-[^211I]astatine-L-phenylalanine [AtPA-211]
cell count / cell survival compared with IPA-131 results [1]: Identical results
induction of primary necrosis and apoptosis [2]: dose dependent induction of primary necrosis and apoptosis, which was more significant than that caused by external irradiation, even with 15 Gy

N[C@@H](Cc1ccc([123I])cc1)C(=O)O [IPA-123, 4-[^123I]iodo-L-phenylalanine]
patients with histologically confirmed tumor showing uptake (glioma [3]; visual assessment): 86%
retention of the tracer in tumor (glioma [3]; patient with glioblastoma): at least 24 h
accumulation in gliomas (glioma [4]; after intravenous administration, ref [14]): accumulates specifically in low and high grade gliomas with surprisingly marked retention in tumor cells
blood-brain barrier passage (glioma [4]; after intravenous administration, refs [13, 14]): crosses the blood-brain barrier
accumulation in the normal cerebral parenchyma (glioma [4]; refs [13, 14]): moderate and decreases rapidly with time

N[C@@H](Cc1ccc([124I])cc1)C(=O)O [IPA-124, 4-[^124I]iodo-L-phenylalanine]
tumor uptake / targeting in glioma patient (glioma [5]; 50 MBq, PET 40-80 min and 6 days post injection): retained in high activity concentrations by tumor tissue for prolonged periods; also recorded: Successful tumor targeting
tolerability (glioma [5]; patient, 50 MBq): well tolerated
retention of tracer in glioma (glioma [5]; patient, 50 MBq, PET): at least 6 days
tumor activity relative to reference region (contralateral healthy tissue), factor (glioma [5]; post-operatively remaining tumor tissue, 6 days post injection of 50 MBq): 8.86
half life [6]: 101 h

N[C@@H](Cc1ccc([131I])cc1)C(=O)O [IPA-131, 4-[^131I]iodo-L-phenylalanine]
Kaplan-Meier survival of treated animals group (C6 rat gliomas; C6-glioma rats, 81 days after implantation, p=<0.05): significant longer survival
tumor disappearance, intravital small animal MRI imaging (C6 rat gliomas; dose 20 MBq, RNU rats): subgaleal and intracerebral tumor disappearance
tumour on MRI (C6 rat gliomas; surviving C6-glioma rats, 81 days after implantation): no tumour was demonstrable with MRI
metabolic and H & E staining of fresh-frozen tissue sections [7]: metabolic normalisation, and histological tumor disappearance
seizures ([8]; treated animals): No seizures were observed
liver and kidney histomorphology ([8]; treated animals, autopsy): did not show any histomorphological abnormality
adverse therapy-related events and toxic effects ([8]; treated glioma rats, clinical observation): no adverse therapy-related events and no toxic effects were observed clinically
cell survival rate [9]: < 20%
cell survival rate ([10]; 24 hours exposure, 1 μCi/ml, compared to parallel grown cell cultures without exposure): less than 22%
mode of cell death (cytological) ([10]; primary human glioma cell lines after 24 hours exposure): apoptosis
metabolic and H & E staining of fresh-frozen tissue sections [11]: metabolic normalisation, and histological tumor disappearance
tumor uptake / targeting in glioma patient (glioma [12]; SPECT 30 min and 26 h post injection): not only taken up but also retained by glioma tissue; also recorded: Successful tumor targeting
tolerability (glioma [12]; patient): well tolerated
retention in tumor (glioma [12]; patient, SPECT): at least 26 hours
induction of primary necrosis and apoptosis [2]: dose dependent induction of primary necrosis and apoptosis, which was more significant than that caused by external irradiation, even with 15 Gy
survival vs maximum tolerable external irradiation ([13]; Kaplan-Meier analysis, 20 MBq vs external irradiation): significantly longer survival than those treated by maximum tolerable doses of external irradiation
survival time of treated rats vs control group ([13]; all glioma models, 20 MBq i.v. in two fractions): significantly increased

Reference: patent publication US9682158B2, “Therapy of malignant neoplasias” (priority 2005, dated 2017)
